Converted amounts (≈) assume the structure as drawn. Numbered stars: 1 amine (or outer) side, 2 acyl side, 3 side chain; on linkers, the order of the positions; unused ones are H or OH. Square brackets hold non-standard residues; d marks the D form. Side chains are listed from the residue outwards. Peptide text beside a SMILES is read from it. * marks the point of attachment. C18 diacid = O=C(O)CCCCCCCCCCCCCCCCC(=O)*; γGlu = O=C(O)[C@H](CCC(=O)[*:2])N[*:1]; AEEA = NCCOCCOCC(=O)O; Aib = CC(C)(N)C(=O)O

One data set has as its target T1, human GLP-1 receptor (Homo sapiens, UniProt P43220).
T1 construct: expressed in transfected cells; host or cells: Chinese guinea pig lung cells [sic]
Briefly: GLP-1 receptor mediated cAMP production in vitro. In kind it is cell-based. The settings on record: cells transfected with human GLP-1 receptor, 20 min at 37° C., read-out: GLP-1R (nM EC50). The text has this: (§1) The medium was removed, the cells were lysed, and cAMP values were detected referring to the detection method described for the assay kit.
Background: Cyclic AMP is a second messenger, typically raised through Gs and lowered through Gi signalling.

The nature of data set [1]: Glucose tolerance test in glucose-loaded DIO mice. The settings on record: DIO mice, conclusions on Tables 4 and 6. The data set is classed as in vivo. The method, boiled down:
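DIO mice fasted 16 h received compound subcutaneously; 1 h later, glucose 1 g/kg was given intraperitoneally. Blood glucose measured at 0.5, 1 and 1.5 h; AUC compared with model control group to give blood glucose inhibition rate (%).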

Data set [2] is described as follows: Accelerated chemical stability in injection solvent system (HPLC-UV). To be noted: 14 days, phosphate buffer pH 7.3 with Tween 80 and phenol, main peak area vs day 0. In kind it is physicochemical. The method, boiled down:
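Compound dissolved in 10 mM pH 8.5 sodium hydrogen phosphate buffer, adjusted to pH 7.3, with Tween 80 and phenol added. Solutions stored 14 days at 10 °C and 37 °C; HPLC-UV main-peak area by normalisation compared against day 0.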

Data set [3] is described as follows: Effect on body weight of DIO mice after 14 days' administration. In kind it is in vivo, C57BL/6J mice. The settings on record: DIO mice, 14 days, conclusions on Tables 3 and 5. The method, boiled down: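 C57BL/6J mice on H10060 high-fat diet for 34 weeks (DIO; 45.0–52.0 g), 5 per group, dosed subcutaneously once daily for 14 days; controls received saline. Body weight change (%) = (initial − last-day weight)/initial weight; positive values mean loss.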

Another data set addresses T2, GC receptor (Homo sapiens, UniProt P47871).
T2 construct: expressed in transfected cells; host or cells: HEK293 cells
Briefly: GC receptor mediated cAMP production in vitro (HEK293 cells transfected with GC receptor). In kind it is cell-based. To be noted: 20 min at 37° C., read-out: GCGR (nM EC50).
Description: as §1

A short description of data set [4]: Short-term administration: food intake and body weight in DIO mice. The data set is classed as in vivo. To be noted: 30 nmol/kg once every 24 h, twice, − decrease. The method, boiled down: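 DIO mice (mean body weight 52.5 g), 5 per group, dosed at 30 nmol/kg every 24 h for two doses, in 10 mM PBS pH 7.4; controls received solvent. Food intake and body weight at 48 h expressed as change rate versus the day before dosing.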

The nature of a further data set: physchem. In kind it is physicochemical.
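Wherever solubility is given: compound added at 2 mg per mL of phosphate buffer, with the dissolved amount determined in the supernatant.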

T2 sequence (P47871 26-477): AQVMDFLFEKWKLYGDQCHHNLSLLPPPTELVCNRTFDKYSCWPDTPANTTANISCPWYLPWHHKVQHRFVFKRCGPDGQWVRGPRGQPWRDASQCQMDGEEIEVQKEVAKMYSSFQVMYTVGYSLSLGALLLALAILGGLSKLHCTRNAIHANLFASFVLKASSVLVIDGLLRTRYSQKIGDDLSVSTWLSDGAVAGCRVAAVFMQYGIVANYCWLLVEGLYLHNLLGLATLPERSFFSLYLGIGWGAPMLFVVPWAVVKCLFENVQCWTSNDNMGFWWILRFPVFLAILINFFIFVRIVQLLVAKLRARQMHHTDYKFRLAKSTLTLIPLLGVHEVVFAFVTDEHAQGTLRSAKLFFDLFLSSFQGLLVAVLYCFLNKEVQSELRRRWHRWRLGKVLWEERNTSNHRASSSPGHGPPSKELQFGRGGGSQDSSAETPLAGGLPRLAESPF
T1 sequence (P43220 24-463): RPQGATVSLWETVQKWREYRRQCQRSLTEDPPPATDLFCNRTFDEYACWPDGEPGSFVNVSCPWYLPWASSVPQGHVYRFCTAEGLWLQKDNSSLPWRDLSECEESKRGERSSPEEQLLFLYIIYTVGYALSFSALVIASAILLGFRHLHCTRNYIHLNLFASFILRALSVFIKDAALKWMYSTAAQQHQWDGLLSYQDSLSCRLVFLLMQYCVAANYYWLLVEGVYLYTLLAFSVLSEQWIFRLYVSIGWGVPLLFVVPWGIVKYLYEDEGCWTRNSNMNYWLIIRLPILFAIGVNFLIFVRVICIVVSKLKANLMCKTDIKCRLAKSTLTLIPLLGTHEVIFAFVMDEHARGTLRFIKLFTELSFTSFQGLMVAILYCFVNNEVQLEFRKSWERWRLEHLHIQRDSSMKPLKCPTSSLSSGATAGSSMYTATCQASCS
Description for physchem: 2 mg of the compound was weighed, dissolved in 1 ml of phosphate buffer solutions with different concentrations (10, 20 mM) and different pH values (7.5, 8.0), and centrifuged, and supernatant was taken. The peak area was measured by HPLC (chromatographic column: Aeris widepore XB-C18 3.6 mm, 4.6×150 mm; mobile phase: A: 0.05% TFA, B: 95% acetonitrile; detection wavelength: 214 nm) and compared with a corresponding sample standard solution, and the relative concentration of the test sample solution is calculated.

As a reminder, the EC50 is the midpoint of the concentration-response curve. What is called solubility is the concentration that dissolves in the medium under given conditions. As for `CC[C@H](C)[C@H](NC(=O)[C@H](Cc1ccccc1)NC(=O)[C@H](CCC(=O)O)NC(=O)[C@H](CCCCNC(=O)COCCOCCNC(=O)COCCOCCNC(=O)CC[C@H](NC(=O)CCCCCCCCCCCCCCCCC(=O)O)C(=O)O)NC(=O)[C@H](C)NC(=O)[C@H](CCCCN)NC(=O)[C@H](CCCNC(=N)N)NC(=O)[C@H](CCC(=O)O)NC(=O)[C@H](CC(=O)O)NC(=O)[C@H](CC(C)C)NC(=O)[C@H](Cc1ccc(O)cc1)NC(=O)[C@H](CCCCN)NC(=O)[C@H](CO)NC(=O)[C@H](Cc1ccc(O)cc1)NC(=O)[C@H](CC(=O)O)NC(=O)[C@H](CO)NC(=O)[C@@H](NC(=O)[C@H](Cc1ccccc1)NC(=O)[C@@H](NC(=O)CNC(=O)[C@H](CCC(N)=O)NC(=O)C(C)(C)NC(=O)[C@@H](N)Cc1c[nH]cn1)[C@@H](C)O)[C@@H](C)O)C(=O)N[C@@H](CCC(=O)O)C(=O)N[C@@H](Cc1c[nH]c2ccccc12)C(=O)N[C@@H](CC(C)C)C(=O)N[C@@H](CCC(=O)O)C(=O)NCC(=O)NCC(=O)N1CCC[C@H]1C(=O)N[C@@H](CO)C(=O)N[C@@H](CO)C(=O)NCC(N)=O` [Compound 66] (H-H[Aib]QGTFTSDYSKYLDERKAK([AEEA-AEEA-γGlu-C18 diacid])EFIEWLEGGPSSG-NH2; N-terminus assumed), the EC50 worked out at 0.051 nM at human GLP-1 receptor and 0.058 nM on GC receptor. The “glucose tolerance / blood glucose lowering (in words)” value in data set [1] is “significantly improved glucose tolerance”. Also, the “Change in purity % (10° C.)” value in data set [2] (10° C.) was −2.7%. For the same compound, the “Change in purity % (37° C.)” value in data set [2] (37° C.) is −5.1%. Besides, in data set [3], the “body weight reduction (in words)” value is given as “significantly reduced body weight”. Moreover, the “Rate of change in food intake (%)” value in data set [4] (at 48 hours vs day before administration) is −56%. For the same compound, in data set [4] (at 48 hours), the “Body weight change” value is -1.7 g. Further, the solubility in “physchem” (pH 7.5, Solubility, pH 7.5, 10 mM phosphate buffer) is 1490 µg/mL (≈ 334 µM); in the data set “physchem” (pH 7.5, Solubility, pH 7.5, 20 mM phosphate buffer), 1420 µg/mL (≈ 318 µM); in the data set “physchem” (pH 8, Solubility, pH 8.0, 10 mM phosphate buffer) it was above 2000 µg/mL; in “physchem” (pH 8, Solubility, pH 8.0, 20 mM phosphate buffer) it was 1880 µg/mL (≈ 421 µM).

For the origin of these results see US12257287B2, “Glucagon-derived peptide and use thereof” (Tianjin Institute of Pharmaceutical Research Co., Ltd., priority 2018, dated 2025).
